# Columns and labels:
# icl1 (isocitrate lyase) = icl1 (isocitrate lyase) (Mycobacterium tuberculosis, UniProt P9WKK7); settings: read-out: Km for icl1; substrate isocitrate; cited from earlier work
# icl2 (isocitrate lyase) = icl2 (isocitrate lyase) (Mycobacterium tuberculosis, UniProt Q8VJU4); settings: read-out: Km for icl2; substrate isocitrate; cited from earlier work
# isocitrate lyase (icl) = isocitrate lyase (icl) (Escherichia coli, UniProt P0A9G6); settings: read-out: Km of icl; E. coli, substrate isocitrate; cited from earlier work
# [1] = tested on: O=C(O)CC(C(=O)O)C(O)C(=O)O; assay: purified protein, by the assay type; settings: other: Lineweaver-Burke plot and Cornish-Bowden direct linear plot
# Chain of isocitrate lyase (icl) (P0A9G6 whole entry): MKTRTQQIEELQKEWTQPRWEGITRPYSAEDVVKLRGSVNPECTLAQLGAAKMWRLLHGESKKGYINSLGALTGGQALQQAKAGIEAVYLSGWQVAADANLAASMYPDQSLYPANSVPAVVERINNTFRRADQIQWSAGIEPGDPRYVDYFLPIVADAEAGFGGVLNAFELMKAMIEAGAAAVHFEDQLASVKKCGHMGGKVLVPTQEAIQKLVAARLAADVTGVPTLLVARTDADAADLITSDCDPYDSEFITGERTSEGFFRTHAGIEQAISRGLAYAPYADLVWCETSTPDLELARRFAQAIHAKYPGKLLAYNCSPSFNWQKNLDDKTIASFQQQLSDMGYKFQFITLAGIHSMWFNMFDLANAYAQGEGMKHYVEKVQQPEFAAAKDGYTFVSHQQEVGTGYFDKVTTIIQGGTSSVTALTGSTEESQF
# Chain of icl1 (isocitrate lyase) (P9WKK7 whole entry): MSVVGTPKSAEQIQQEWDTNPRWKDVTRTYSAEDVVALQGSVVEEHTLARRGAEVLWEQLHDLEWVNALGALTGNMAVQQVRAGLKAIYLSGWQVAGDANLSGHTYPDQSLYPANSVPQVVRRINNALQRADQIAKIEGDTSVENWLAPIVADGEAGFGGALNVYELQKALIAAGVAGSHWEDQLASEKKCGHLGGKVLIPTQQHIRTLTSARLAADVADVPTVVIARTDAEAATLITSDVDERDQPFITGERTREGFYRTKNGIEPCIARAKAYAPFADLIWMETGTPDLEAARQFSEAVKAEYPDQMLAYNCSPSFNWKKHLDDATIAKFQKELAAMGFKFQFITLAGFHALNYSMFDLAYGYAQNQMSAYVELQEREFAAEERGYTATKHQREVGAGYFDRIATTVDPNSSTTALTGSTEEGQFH
# Chain of icl2 (isocitrate lyase) (Q8VJU4 whole entry): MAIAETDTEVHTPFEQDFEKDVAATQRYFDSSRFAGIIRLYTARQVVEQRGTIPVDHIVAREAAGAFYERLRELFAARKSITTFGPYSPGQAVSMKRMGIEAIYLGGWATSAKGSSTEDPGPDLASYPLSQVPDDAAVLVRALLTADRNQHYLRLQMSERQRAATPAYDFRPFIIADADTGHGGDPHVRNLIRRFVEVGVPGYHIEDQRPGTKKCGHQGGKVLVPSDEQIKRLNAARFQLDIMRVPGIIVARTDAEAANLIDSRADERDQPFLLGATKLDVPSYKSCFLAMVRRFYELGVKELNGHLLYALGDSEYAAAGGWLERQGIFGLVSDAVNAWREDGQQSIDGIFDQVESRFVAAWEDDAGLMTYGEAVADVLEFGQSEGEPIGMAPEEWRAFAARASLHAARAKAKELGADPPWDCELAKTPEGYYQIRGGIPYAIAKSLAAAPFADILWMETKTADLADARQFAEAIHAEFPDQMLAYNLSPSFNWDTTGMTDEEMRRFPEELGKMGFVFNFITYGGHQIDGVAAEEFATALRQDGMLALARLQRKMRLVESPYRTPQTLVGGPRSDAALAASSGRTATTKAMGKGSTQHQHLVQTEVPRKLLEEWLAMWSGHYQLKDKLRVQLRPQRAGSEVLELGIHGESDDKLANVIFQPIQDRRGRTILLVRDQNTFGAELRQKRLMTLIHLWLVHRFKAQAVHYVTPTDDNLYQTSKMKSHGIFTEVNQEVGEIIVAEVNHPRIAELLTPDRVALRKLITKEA
Compound,Km (icl1 (isocitrate lyase)) [µM],Km (icl2 (isocitrate lyase)) [µM],Km (isocitrate lyase (icl)) [µM],Km [1] [µM]
O=C(O)CC(C(=O)O)C(O)C(=O)O (stereo not shown) [isocitrate],~115,~1500,604,
"icd1 (isocitrate dehydrogenase, Rv 3339c) (Mycobacterium tuberculosis H37Rv)",,,,12

# From US20060216774A1 (priority 2003, published 2006)
